From paper PMC9820345, “Metal Complexes of a 5-Nitro-8-Hydroxyquinoline-Proline Hybrid with Enhanced Water Solubility Targeting Multidrug Resistant Cancer Cells” (International Journal of Molecular Sciences, 2022)
Where two headings read alike, the source gives them in different places.

Assays:
HSA site II = molecular target: T1, HSA site II (Homo sapiens, UniProt P02768); assay: HSA dansylglycine (DG) site marker displacement by fluorometry (site II); type: binding; settings: 1 µM HSA, 1 µM DG, pH 7.4 (PBS')
T1 construct: purchased Sigma-Aldrich (Darmstadt, Germany) A8763
Procedure: Therefore, tryptophan (Trp-214) quenching and dansylglycine (DG) site marker displacement experiments were conducted by fluorometry to obtain information about the binding at sites I and II, respectively, using the same approach reported in our former paper. A representative spectral series is shown in Figure 9a for the Trp-214 quenching experiment, upon the addition of the RhCp*–HQNO2-L-Pro complex and the computed binding constants (logKQ’ and logKDG’) which can be found in Figure 9b, in addition to the corresponding data for the HQCl-L-Pro complexes.
A Fluoromax (Horiba Jobin Yvon, Longjumeau, France) spectrofluorometer was utilized for fluorescence measurements using a 1 cm × 1 cm quartz cuvette. Samples contained 1 µM HSA or DG and 1 µM HSA at pH 7.4 (PBS’), and the complex concentration was varied between 0 and 53 µM. The measurements were carried out on individual samples. Excitation wavelengths were 295 nm for Trp-214 quenching, and 335 nm for the DG displacement studies, respectively. The calculated conditional stability constants for HSA–complex species were obtained using the computer program HypSpec. Calculations always were based on data obtained from at least two independent measurements. Self-absorbance and inner filter effect had to be taken into account, and corrections were made as was described in our former works.

[1] = type: physicochemical; settings: for logK' (H2O/Cl−): I = 0.2 M KNO3, 25.0 °C
Procedure: Spectral changes in the UV-vis spectra (Figure 8c) reveal two transformation processes. […] As chloride ions can efficiently coordinate to these types of half-sandwich organometallic complexes, the water/chloride co-ligand exchange process was also studied by UV-vis spectrophotometry (at pH 7.4 or 6.0), and logK' (H2O/Cl^-) exchange constants were determined (Table 3) based on the spectral changes upon increasing the chloride concentration in the solution. For the RhCp* complex, a higher constant, namely stronger chloride ion affinity, was obtained. […] An Agilent Cary 8454 diode array spectrophotometer (Santa Clara, CA, USA) was used to obtain UV-vis spectra in the wavelength range 200-1000 nm, while spectra were recorded for the Fe(II)-containing samples using an Avantes (Avantes B.V., Apeldoorn, The Nederlands) AvaSpec-ULS2048CL-EVO spectrometer with an AvaLight-DHc light source and […] transmission dip probe. The titrations for the Fe(II)-containing samples were performed in a laboratory glove box (GP(Campus), Jacomex) (O2 content ≤ 1 ppm). The path length (l) was 1 cm in most cases (the actual l is always indicated in the legends of the figures). […] Spectra were always background and baseline corrected. The computer program HypSpec was used to obtain stability constants. Hydrolysis constants of the Fe(III), Fe(II), RuCym, and RhCp* species were included in the speciation models (see Table S4 with the data taken from References).

[2] = n-Octanol/water distribution coefficients, shake-flask method; type: physicochemical; settings: pH 7.40 (20 mM phosphate buffer); 100 mM chloride; 25.0 °C
Procedure: The traditional shake-flask method was used to obtain distribution coefficients of the ligands as well as of the complexes in n-octanol/buffered aqueous solution (20 mM phosphate, pH = 7.40 or 10 mM MES, pH 5.50) at different chloride ion concentrations (4, 24 and 100 mM) using UV-vis spectrophotometry (Agilent Cary 8454 diode array spectrophotometer, Santa Clara, CA, USA) for the analysis. The measurement and data evaluation were performed as described in our former work.

T1 sequence (P02768 25-609): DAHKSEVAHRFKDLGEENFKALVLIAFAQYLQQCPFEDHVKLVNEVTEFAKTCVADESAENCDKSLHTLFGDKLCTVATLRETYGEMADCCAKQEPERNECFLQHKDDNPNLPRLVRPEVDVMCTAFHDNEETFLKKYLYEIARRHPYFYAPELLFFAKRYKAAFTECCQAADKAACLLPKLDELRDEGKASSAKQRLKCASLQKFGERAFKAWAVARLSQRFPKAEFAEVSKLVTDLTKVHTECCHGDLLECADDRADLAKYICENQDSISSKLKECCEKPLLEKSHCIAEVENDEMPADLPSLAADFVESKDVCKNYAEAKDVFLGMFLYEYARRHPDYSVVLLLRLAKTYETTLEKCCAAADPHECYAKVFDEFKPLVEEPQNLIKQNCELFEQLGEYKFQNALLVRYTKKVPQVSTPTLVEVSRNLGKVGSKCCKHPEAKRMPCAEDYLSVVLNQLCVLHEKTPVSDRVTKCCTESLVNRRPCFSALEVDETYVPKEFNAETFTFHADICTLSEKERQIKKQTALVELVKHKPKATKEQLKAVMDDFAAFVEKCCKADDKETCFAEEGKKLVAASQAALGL

Compound	DG marker displacement constant logKDG' (HSA site II)	pKa (1) [1]	pKa (2) [1]	logK' (H2O/Cl−) ([1]; pH 7.4)	Kd (HSA site II; read-out: DG marker displacement constant logKDG' (converted))	logK' (H2O/Cl−) ([1]; pH 6.0)	log D7.4 [2]
CC1=C(C)[C](C)([Rh]([Cl])[O]c2c(C[NH+]3CCC[C@H]3C(=O)O)cc([N+](=O)[O-])c3cccnc23)C(C)=C1C.[Cl-] [RhCp*-HQNO2-L-Pro, [RhCp*(HQNO2-L-Pro)Cl]Cl]	5.6	9.33 ± 0.03	10.34 ± 0.03	2.07 ± 0.03	–	–	–
O=C(O)[C@@H]1CCCN1Cc1cc([N+](=O)[O-])c2cccnc2c1O [HQNO2-L-Pro, (2S)-1-((8-hydroxy-5-nitroquinolin-7-yl)methyl)pyrrolidin-1-ium-2-carboxylate]	–	–	–	–	33.9 µM	–	–
Cc1ccc(C(C)C)cc1.O=C(O)[C@@H]1CCC[NH+]1Cc1cc([N+](=O)[O-])c2ccc[n+]3c2c1[O][Ru-]3[Cl].[Cl-] [RuCym-HQNO2-L-Pro, [RuCym(HQNO2-L-Pro)Cl]Cl]	–	8.55 ± 0.03	10.21 ± 0.03	–	–	1.47 ± 0.01	+0.06 ± 0.01
